Source: the supplement of paper PMC10883282
± gives the standard deviation of the averaged measurements.

Test system: HS729
Assay: relative viability vs DMSO control (72 h) (fraction); higher = more viable cells
Outline: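 Relative viability was measured with ATPLite and expressed as percent growth, averaged across up to triplicate wells. Sarcoma cell lines had been seeded in 384-well plates to reach 80–90% confluence, dosed after 24 h, and incubated 72 h at 37 °C, 5% CO2. All data were rescaled on a scale where 1 is full and 0 is none.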

COc1cc2c(cc1O)CCN[C@]21CS[C@@H]2c3c(OC(C)=O)c(C)c4c(c3[C@H](COC1=O)N1[C@@H]2[C@H]2c3c(cc(C)c(OC)c3O)C[C@@H]([C@@H]1O)N2C)OCO4 [Trabectedin]
relative viability (2 pM): 0.999 ± 0.056 | relative viability (5 pM): 0.952 ± 0.019 | relative viability (15 pM): 0.957 ± 0.067 | relative viability (50 pM): 0.859 ± 0.044 | relative viability (0.00014 µM): 0.557 ± 0.15 | relative viability (0.00041 µM): 0.137 ± 0.14 | relative viability (0.0012 µM): 0.183 ± 0.041 | relative viability (0.0037 µM): 0.166 ± 0.0097 | relative viability (0.011 µM): 0.124 ± 0.0083 | relative viability (200 fM): 1.02 ± 0.048 | relative viability (600 fM): 1.05 ± 0.034

Nc1cc(C(F)(F)F)c(-c2cc(N3CCOCC3)nc(N3CCOCC3)n2)cn1 [Buparlisib]
relative viability (0.00017 µM): 0.937 ± 0.034 | relative viability (0.00051 µM): 0.95 ± 0.015 | relative viability (0.00152 µM): 0.936 ± 0.046 | relative viability (0.00457 µM): 0.906 ± 0.083 | relative viability (0.01372 µM): 0.902 ± 0.062 | relative viability (0.04115 µM): 0.89 ± 0.012 | relative viability (0.1235 µM): 0.812 ± 0.052 | relative viability (0.3704 µM): 0.702 ± 0.059 | relative viability (1.111 µM): 0.568 ± 0.053 | relative viability (3.333 µM): 0.327 ± 0.023 | relative viability (10 µM): 0.274 ± 0.026

CC(C)NC(=O)C1CCC(n2c(NC(=O)c3ccc(F)cc3)nc3ccc(CN4CCC(C(C)(C)O)CC4)cc32)CC1 (centres undefined) [Belizatinib]
relative viability (0.00017 µM): 0.93 ± 0.018 | relative viability (0.00051 µM): 0.952 ± 0.042 | relative viability (0.00152 µM): 0.967 ± 0.057 | relative viability (0.00457 µM): 0.945 ± 0.027 | relative viability (0.01372 µM): 0.949 ± 0.061 | relative viability (0.04115 µM): 0.9059 ± 0.0065 | relative viability (0.1235 µM): 0.836 ± 0.043 | relative viability (0.3704 µM): 0.695 ± 0.041 | relative viability (1.111 µM): 0.602 ± 0.04 | relative viability (3.333 µM): 0.526 ± 0.02 | relative viability (10 µM): 0.42 ± 0.053

N#CC[C@H](C1CCCC1)n1cc(-c2ncnc3[nH]ccc23)cn1 [Ruxolitinib]
relative viability (0.00017 µM): 1.07 ± 0.028 | relative viability (0.00051 µM): 1.07 ± 0.028 | relative viability (0.00152 µM): 1.06 ± 0.028 | relative viability (0.00457 µM): 1.05 ± 0.027 | relative viability (0.01372 µM): 1.02 ± 0.068 | relative viability (0.04115 µM): 1.06 ± 0.031 | relative viability (0.1235 µM): 1.01 ± 0.031 | relative viability (0.3704 µM): 0.989 ± 0.035 | relative viability (1.111 µM): 0.938 ± 0.086 | relative viability (3.333 µM): 0.894 ± 0.1 | relative viability (10 µM): 0.764 ± 0.041
